Legend:
5-HT1C receptor = test: pharmacological studies, 5-HT1C receptor activity
[1] = test system: muscarinic cholinergic receptor; test: pharmacological studies, muscarinic cholinergic receptor activity
[2] = detection of radiolabelled olanzapine in saliva; format: in vivo
Procedure: For example, in the treatment of adult humans, dosages of from 5 to 20 mg per day may be used. A once a day dosage is normally sufficient, although divided doses may be administered. For treatment of extreme aggression, a dose range of from 5 to 20 mg per day is suitable.

excessive aggression = test: double-blind multicenter clinical trial, olanzapine or placebo; format: in vivo, human; conditions: patients randomized to olanzapine or placebo
From the text: A double-blind multicenter clinical trial was designed to assess the safety and efficacy of olanzapine. Patients were randomized to olanzapine or placebo.

SMILES: Cc1cc2c(s1)Nc1ccccc1N=C2N1CCN(C)CC1 [olanzapine, 2-methyl-4-(4-methyl-1-piperazinyl)-10H-thieno[2,3-b][1,5]benzodiazepine]
- activity at the 5-HT1C receptor (5-HT1C receptor): active
- muscarinic cholinergic receptor activity [1]: has muscarinic cholinergic receptor activity
- detection in saliva [2]: can be detected in the saliva
- efficacy in treatment of excessive aggression (excessive aggression): can be useful for the treatment of excessive aggression

— patent US6071902A, “Method for treating excessive aggression” (Eli Lilly and Company, priority 1997, dated 2000)
